# Tests used:
# [1] = system: KC/CXCL-1 (Chemokines Gro-α); test: COPD mouse model (LPS+CS): KC/CXCL-1 in BALF by ELISA; format: in vivo, BALB/c mice; conditions: 15 mg/kg, p.o.
# Description: 8 weeks aged BALB/c male mice was anaesthetized with 7% chloral hydrate and 100 μl of LPS+CS mixture {LPS (100 μg/ml)+standard cigarette extract (Cigarette smoking (CS), 4 mg/ml)=1:1} was inhaled to mice (i.t.) for three weeks once a week to prepare COPD animal model. Briefly, 100 μl of LPS+CS mixture was evenly inhaled to nose and mouth of fastened mice (i.t). […] After the end of experiment, the blood, BALF, and pneumonocyte of each mice were isolated and collected to test. The level of IL-1β, IL-6, TNF-a, IL-17, MCP-1, and GRO-a (BioSource, USA) in BALF isolated from mice was determined by enzyme-linked immuno-sorbent assay. Respective antibodies against L-1β, IL-6, TNF-a, IL-17, MCP-1, and GRO-a were diluted with a coating buffer solution (291195, R&D System, USA), coated on a microwell and left alone for overnight at 4° C. Each well was washed three times with washing buffer solution and 100 μl of 10-fold diluted serum was added thereto. […] The solution was left alone for 30 mins in shadow and added with 50 μl of stop solution (DY994, R&D system, USA) to determine the absorbance using by ELISA leader at 450 nm (340PC384, Molecular Devices, USA).
# MIP-2/CXCL-2 = test: COPD mouse model (LPS+CS): MIP-2/CXCL-2 in BALF by ELISA; format: in vivo, BALB/c mice; conditions: 15 mg/kg, p.o.
# [2] = target: ADBR2 (beta-2 adrenergic receptor) GPCR (Homo sapiens, UniProt P07550); test: ADBR2 GPCR-targeting cell-based assay (spot formation); conditions: 20 micromole; U2OS cells stably expressing ADBR2 GPCR
# Sequence of ADBR2 (beta-2 adrenergic receptor) GPCR (P07550 whole entry): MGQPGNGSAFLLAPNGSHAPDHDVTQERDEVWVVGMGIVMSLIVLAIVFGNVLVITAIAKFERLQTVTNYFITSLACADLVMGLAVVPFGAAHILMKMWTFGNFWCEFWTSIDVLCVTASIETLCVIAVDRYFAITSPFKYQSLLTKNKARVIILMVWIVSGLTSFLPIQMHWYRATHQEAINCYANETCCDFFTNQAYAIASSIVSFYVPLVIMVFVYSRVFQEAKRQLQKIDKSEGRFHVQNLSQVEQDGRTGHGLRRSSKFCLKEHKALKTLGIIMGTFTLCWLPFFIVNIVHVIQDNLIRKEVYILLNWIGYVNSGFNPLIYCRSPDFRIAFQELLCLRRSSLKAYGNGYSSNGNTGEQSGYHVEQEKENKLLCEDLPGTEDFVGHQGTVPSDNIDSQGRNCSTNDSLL
# [3] = system: inflammation in lung tissue; test: COPD rat model: histopathological examination of lung tissue; format: in vivo, Sprague-Dawley rat; conditions: p.o.
# Description: (§1) The exposure of cigarette smoke was performed by using a cigarette smoke generator (CH Technology Corp. USA). In a detail, 1 hour after the orally administration of test samples using by Head/nose-only exposure unit (TSE System, German) according to nose-only method, the cigarette smoke was exposed by inhalation for 3 days every hour. 8 puffs (volume 35 ml, duration 2 sec, interval 1 time/min) per one piece of standard cigarette was performed in the experiment. The tested groups were divided into five groups, i.e., (i) normal group with no treatment (normal control, NC), (ii) control group exposed with cigarette smoke (COPD), (iii) test sample group treated with Daxas (1 mg/kg, p.o) 1 hr prior to cigarette smoke exposure (DA), (iv) test sample group treated with ATC2 (30 mg/ml, p.o) 1 hr prior to cigarette smoke exposure (YPL), and (v) test sample group treated with Verproside (30 mg/ml, p.o) 1 hr prior to cigarette smoke exposure (Ver).
# Delivered lung was promptly fixed with 10% formaldehyde solution (F0161, SAMCHUN, Korea), and cut into slices. The slices were washed with running water for 8 hrs, embedded with epoxy, cut into slices with microtome (CUT4050, MicroTec, Germany) and stained with Hematoxylin (MHS-16, Sigma-Aldrich, USA) & Eosin (HT110-1-32, Sigma-Aldrich, USA). […]
# MMP-9 = test: COPD rat model: MMP-9 activity in lung tissue (gelatin zymography); format: in vivo, Sprague-Dawley rat; conditions: ATC2 and Verproside 30 mg/kg, p.o.; level similar to Daxas group
# Description: The exposure of cigarette smoke was performed by using a cigarette smoke generator (CH Technology Corp. USA). In a detail, 1 hour after the orally administration of test samples using by Head/nose-only exposure unit (TSE System, German) according to nose-only method, the cigarette smoke was exposed by inhalation for 3 days every hour. 8 puffs (volume 35 ml, duration 2 sec, interval 1 time/min) per one piece of standard cigarette was performed in the experiment. […]
# The lung tissue of rat was homogenized with Tissue lysis buffer (C3228, Sigma-Aldrich, USA) treated with a protease inhibitor (11836153001, Roche, Germany) and the homogenized lung tissue was centrifuged at 12000 rpm for 10 mins to isolate the supernatant. The protein assay reagent (500-0006, Bio-Rad, USA) was used to quantification. […] The density of MMP-9 band was determined using by Chemi-doc (170-8070, Bio-Rad, USA) to determine the activity of MMP-9.
# MMP-9 and NF-κB = test: COPD rat model: expression of proinflammatory proteins in lung tissue (Western blotting); format: in vivo, Sprague-Dawley rat; conditions: ATC2 and Verproside 30 mg/kg, Daxas 1 mg/kg, p.o.
# Description: as §1
# The protein obtained from homogenization was performed to electrophoresis at the dose of 30 μg/lane and transferred using by polyvinylidene difluoride (PVDF) membrane (IPVH00010, Millipore, USA).
# IL-1β, IL-6, and TNF-α = test: COPD rat model (cigarette smoke): cytokine release in BALF by ELISA; format: in vivo, Sprague-Dawley rat; conditions: ATC2 and Verproside 30 mg/kg, Daxas 1 mg/kg, p.o.
# Description: The exposure of cigarette smoke was performed by using a cigarette smoke generator (CH Technology Corp. USA). In a detail, 1 hour after the orally administration of test samples using by Head/nose-only exposure unit (TSE System, German) according to nose-only method, the cigarette smoke was exposed by inhalation for 3 days every hour. 8 puffs (volume 35 ml, duration 2 sec, interval 1 time/min) per one piece of standard cigarette was performed in the experiment. The tested groups were divided into five groups, i.e., (i) normal group with no treatment (normal control, NC), (ii) control group exposed with cigarette smoke (COPD), (iii) test sample group treated with Daxas (1 mg/kg, p.o) 1 hr prior to cigarette smoke exposure (DA), (iv) test sample group treated with ATC2 (30 mg/ml, p.o) 1 hr prior to cigarette smoke exposure (YPL), and (v) test sample group treated with Verproside (30 mg/ml, p.o) 1 hr prior to cigarette smoke exposure (Ver). After the end of experiment, the blood, BALF, and pneumonocyte of each rat were isolated and collected to test.
# The level of IL-1β, IL-6, and TNF-a (R&D System, USA) in BALF isolated from the rat was determined by enzyme-linked immuno-sorbent assay (ELISA). The analysis of each cytokine was performed according to the manufacturer's manual, and the absorbance was determined at 450 nm by ELISA leader (340PC384, Molecular Devices, USA).
smiles,measurement,setting,value
"O=C(O[C@H]1[C@@H]2C=CO[C@@H](O[C@@H]3O[C@H](CO)[C@@H](O)[C@H](O)[C@H]3O)[C@@H]2[C@@]2(CO)O[C@@H]12)c1ccc(O)c(O)c1 [verproside, 6-O-(3,4-dihydroxybenzoyl) catalpol]",reduction of chemokine KC/CXCL-1 in BALF compared with control group,[1],more than 57.4%
same,reduction of chemokines MIP-2/CXCL-2 in BALF compared with control group,MIP-2/CXCL-2,more than 63.0%
same,spot formation,[2],did not show spot formation
same,inhibitory effect on inflammation in lung tissue relative to Daxas group,[3]; ATC2 and Verproside 30 mg/kg versus Daxas 1 mg/kg,more potent
same,inflammation (infiltration of inflammatory cells) in lung tissue compared with COPD induced group,"[3]; ATC2 and Verproside 30 mg/kg, Daxas 1 mg/kg",significant decreased
same,activity of MMP-9 in lung tissue,MMP-9,remarkably reduced activity
same,"expression of proinflammatory protein (MMP-9, NF-κB) in lung tissue compared with COPD induced group",MMP-9 and NF-κB,significant decreased
same,"level of cytokines (IL-1β, IL-6, TNF-α) in BALF compared with COPD induced group","IL-1β, IL-6, and TNF-α",significantly reduced level
